Measurements as given in patent publication US20190062277A1, “FARNESOID X RECEPTOR AGONISTS AND USES THEREOF” (Metacrine, Inc., priority 2015, published 2019).

What was measured:
FXR [1] = biological target: T1, FXR (Homo sapiens, UniProt Q96RI1); experiment: In Vitro FXR Assay (PGL3), luciferase reporter in transfected CV-1 cells; assay type: cell-based; set-up: plasmids XPD90Gal pCMXhFXRfl, pCMXhRXRfl+PGL3-ECRE*6-luc+CMX-YFP; expressed in transfected cells; host or cells: CV-1 cells; settings: CV-1 cells transfected with hFXR, hRXR, PGL3-ECRE*6-luc; 18 hrs incubation; luminescence
T1 sequence (Q96RI1 1-486): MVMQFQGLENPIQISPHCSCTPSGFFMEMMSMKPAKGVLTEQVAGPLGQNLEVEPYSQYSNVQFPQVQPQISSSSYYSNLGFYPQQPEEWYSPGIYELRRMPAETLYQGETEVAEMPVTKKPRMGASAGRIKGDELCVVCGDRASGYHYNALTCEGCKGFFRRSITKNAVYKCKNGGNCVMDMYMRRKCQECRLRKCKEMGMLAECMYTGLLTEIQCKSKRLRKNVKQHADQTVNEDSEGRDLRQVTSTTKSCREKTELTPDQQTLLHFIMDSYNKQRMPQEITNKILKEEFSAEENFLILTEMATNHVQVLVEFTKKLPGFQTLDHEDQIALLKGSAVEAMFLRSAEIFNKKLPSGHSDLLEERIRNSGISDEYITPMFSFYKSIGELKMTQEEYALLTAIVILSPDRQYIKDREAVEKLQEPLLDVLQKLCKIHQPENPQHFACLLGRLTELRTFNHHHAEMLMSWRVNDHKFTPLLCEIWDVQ
T1 sequence (P19793 1-462 partner): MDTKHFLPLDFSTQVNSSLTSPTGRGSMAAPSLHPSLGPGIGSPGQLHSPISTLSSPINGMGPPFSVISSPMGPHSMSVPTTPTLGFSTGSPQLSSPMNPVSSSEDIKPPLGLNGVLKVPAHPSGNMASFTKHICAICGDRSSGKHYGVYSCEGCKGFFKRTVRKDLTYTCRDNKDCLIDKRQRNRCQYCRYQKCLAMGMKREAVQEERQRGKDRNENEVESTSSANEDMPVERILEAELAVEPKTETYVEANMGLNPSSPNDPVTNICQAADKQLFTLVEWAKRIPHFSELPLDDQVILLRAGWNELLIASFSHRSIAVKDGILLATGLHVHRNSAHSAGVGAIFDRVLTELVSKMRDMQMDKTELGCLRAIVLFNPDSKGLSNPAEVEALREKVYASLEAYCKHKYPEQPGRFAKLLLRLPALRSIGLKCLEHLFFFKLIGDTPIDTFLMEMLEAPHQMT
Experimental: Example B-1: In Vitro FXR Assay (PGL3)
CV-1 cells were seeded at a density of 2,000,000 cells in a T175 flask with DMEM+10% charcoal double-stripped FBS and incubated at 37° C. in a 5% CO2 for 18 h (0/N).
After 18 h of incubation, the medium in the T175 flask was changed with fresh DMEM+10% charcoal super-stripped serum.
To prepare the transfection reaction mixture, the transfection reagent (X-tremeGENE HP from Roche, Cat #06 366 236 001) was added in to a 1.5 mL microcentrifuge tube labelled “A” at a ratio of 1:3 (DNA in μg: transfection reagent in μL). OptiMEM medium (Life Technologies, Cat #31985-062) was added accordingly to provide a total volume of 1 mL. The transfection reaction mixture was then briefly vortexed and incubated at room temperature for 5 minutes.
In a separate 1.5 mL microcentrifuge tube labelled “B”, 100 μL OptiMEM and plasmids XPD90Gal pCMXhFXRfl, pCMXhRXRfl+PGL3-ECRE*6-luc+CMX-YFP in the ratio 2 μg: 2 μg:18 μg:3 μg were added. This microcentrifuge tube “B” was then briefly vortexed and incubated at room temperature for 5 minutes.
The total volume in tube labelled “A” was then transferred in to tube labelled “B.” The mixture was then briefly vortexed and the transfection:DNA complex was then incubated for about 15-20 minutes at room temperature.
Following incubation, the transfection reagent/DNA mixture complex was then added to cells in the T175 flask and the cells were incubated at […] (0/N) at 37° C. in 5% CO2.
In a 96 well plate, a half logarithmic serial dilution was prepared. OptiMEM was used as the diluent. Using any of one of the compounds described herein, a compound stock solution of 10 mM was prepared. An initial 1:100 dilution was made into the first well for a final concentration of 100 μM. The final concentrations in the 96-well plate was prepared by using a multichannel pipette to transfer 5 μL of the diluted compound to 384-well plate in quadruplicate.
Cells in T175 flask were trypsinized and cells were resuspending in 40 mL phenol red free DMEM+10% charcoal super-stripped FBS. Typically, one T175 flask was sufficient to seed two 384 well plates. CV-1 cells were seeded at 45 μL cell suspension/well using a multi-channel pipet or a 384 multidrop dispenser. The cells were then incubated for 18 hrs, overnight.
After removing the plates from the incubator, the medium was flicked out of plate and 384 well plate was turned upside down onto paper towel. The remaining medium was gently tapped out. 15 μL lysis buffer was then added to each well using a multichannel pipet or a 384 well multi-drop dispenser. After incubation for 10 minutes at room temperature on shaker, 30 μL Luciferase buffer was added to each well. Luminescence counts were taken immediately using the Perkin Elmer Envision.
The ability of the compounds disclosed herein to […] FXR activity was quantified and the respective EC50 value was determined. Fex=fexaramine.

FXR [2] = biological target: T1, FXR; experiment: In Vitro FXR Assay (TK), luciferase reporter in transfected CV-1 cells; assay type: cell-based; set-up: expressed in transfected cells; host or cells: CV-1 cells; settings: CV-1 cells transfected with hFXR, hRXR, TK-ECRE-luc; 18 hrs incubation; luminescence; maximum efficacy <25% of Fexaramine control also classified '+'
Experimental: Example B-2: In Vitro FXR Assay (TK)
CV-1 cells were seeded at a density of 2,000,000 cells in a T175 flask with DMEM+10% charcoal double-stripped FBS and incubated at 37° C. in 5% CO2 for 18 h (0/N).
After 18 h of incubation, the medium in the T175 flask was changed with fresh DMEM+10% charcoal super-stripped serum. In a polypropylene tube, 2500 μL OptiMEM (Life Technologies, Cat #31985-062) was combined with expression plasmids for hFXR, hRXR, TK-ECRE-luc and pCMX-YFP. The tube was then briefly vortexed and incubated at room temperature for 5 minutes. Transfection reagent (X-tremeGENE HP from Roche, Cat #06 366 236 001) was added to the OptiMEM/plasmid mixture vortexed and incubated at room temperature for 20 minutes. Following incubation, the transfection reagent/DNA mixture complex was added to cells in the T175 flask and the cells were incubated at 37° C. in 5% CO2 for 18 h (O/N).
Compounds were serially diluted in DMSO and added to transfected CV-1 cells. The cells were then incubated for 18 hrs. The next day cells were lysed and examined for luminescence.

Cmpd/Fex (ratio of the EC50 for the test compound relative to the EC50 of the Fexaramine control) (FXR [1]): +++ (‘+++’ means Cmpd/Fex <10)
EC50 (FXR [2]): ≤ 1000 nM
SMILES: COC(=O)/C=C/c1cccc(N(CC2CCN(c3ccc(C)cc3)CC2)C(=O)C2CCCCC2)c1 [Compound 5, (E)-Methyl 3-(3-(N-((1-(p-tolyl)piperidin-4-yl)methyl)cyclohexanecarboxamido)phenyl)acrylate]
